Test results: patent US20250171399A1, “PYRROLIDINE COMPOUNDS” (Eli Lilly and Company, priority 2022, published 2025)
pIC50: −log10 of the molar value. Structures can show the parent of a compound that is named as a salt.

Molecular target: T1, human Apo(a) protein (Homo sapiens, UniProt P08519)
T1 sequence (P08519 1053-1693 limits assumed): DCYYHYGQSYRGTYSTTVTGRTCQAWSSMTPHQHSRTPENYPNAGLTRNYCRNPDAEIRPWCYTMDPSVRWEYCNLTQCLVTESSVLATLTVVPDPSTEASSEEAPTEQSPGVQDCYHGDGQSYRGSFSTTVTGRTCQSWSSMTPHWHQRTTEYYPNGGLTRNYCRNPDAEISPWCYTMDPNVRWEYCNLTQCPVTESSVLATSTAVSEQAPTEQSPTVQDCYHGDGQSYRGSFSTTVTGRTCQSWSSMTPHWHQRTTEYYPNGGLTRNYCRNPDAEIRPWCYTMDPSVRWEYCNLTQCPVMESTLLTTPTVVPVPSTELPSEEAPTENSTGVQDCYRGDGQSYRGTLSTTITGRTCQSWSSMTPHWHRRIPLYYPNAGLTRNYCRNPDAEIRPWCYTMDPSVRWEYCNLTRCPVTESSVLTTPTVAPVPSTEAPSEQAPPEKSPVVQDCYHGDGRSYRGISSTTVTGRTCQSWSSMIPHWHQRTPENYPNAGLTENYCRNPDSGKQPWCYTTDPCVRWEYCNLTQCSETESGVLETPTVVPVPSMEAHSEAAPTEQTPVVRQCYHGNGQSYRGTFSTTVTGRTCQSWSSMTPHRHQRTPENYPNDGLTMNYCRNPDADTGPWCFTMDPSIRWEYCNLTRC
Experiment: In vitro Apo(a) binding assay (competitive SPA radioligand binding)
Details: competitive binding vs tritium-labeled radioligand 0.52 nM; human Apo(a) containing 17 Kringle repeats; 60 min at RT
Method: The in vitro binding affinity of compounds to the intended target human Apo(a) protein were tested in a competitive binding assay. Human Apo(a) protein containing 17 Kringle repeats was affinity purified from conditioned media of transiently transfected HEK-293F cells. All reagents were prepared in assay buffer containing 50 mM Tris-HCl pH 7.4, 0.1% BSA. The binding assay was conducted by adding to each well of a clear-bottom plate 50 μL each of (1) test compound in dilution series (final concentration 0.32˜10000 nM), (2) Apo(a) protein (6 ng/well), (3) re-suspended Wheat Germ Agglutinin Polyvinyltoluene SPA beads (20 mg/mL), and (4) the radioligand, tritium-labeled (2S)-3-[3-[2-oxo-3-[3-(tritritiomethoxy)phenyl]imidazolidin-1-yl]phenyl]-2-[(3R)-pyrrolidin-3-yl]propanoic acid hydrochloride (prepared essentially as described in WO 2020/247429; final concentration 0.52 nM). Plates were incubated for 60 min at RT and counted on TRILUX LSC. Non-specific binding, defined as binding in the presence of […] cold (i.e. non-radiolabeled) ligand: (2S)-3-[3-[2-oxo-3-[3-(methoxy)phenyl]imidazolidin-1-yl]phenyl]-2-[(3R)-pyrrolidin-3-yl]propanoic acid hydrochloride (prepared essentially as described in WO 2020/247429) was subtracted to determine specific binding. Data were analyzed by fitting to a standard single site binding model and the IC50 for the Example test compound was determined. […]

pIC50: 8.33
Structure (SMILES): COc1cc(F)cc(CNc2cccc(C[C@H](C(=O)O)[C@H]3CCNC3)c2)c1 [Example 6, (2S)-3-[3-[[(3-Fluoro-5-methoxy-phenyl)methyl]amino]phenyl]-2-[(3R)-pyrrolidin-3-yl]propanoic acid;hydrochloride]
